Biological target: T1, TYK2 (Homo sapiens, UniProt P29597)
Experiment: TYK2 degradation MSD assay in human PBMC cells
Type: cell-based
Set-up: endogenous in cells; host or cells: human PBMC
Conditions: 4 to 24 hours incubation, read-out: TYK2 MSD DC50 rating in human PBMC
Outline: (§1)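 TYK2 levels in lysed cells, detected via antibody capture and SULFO-TAG electrochemiluminescence, were compared across a nine-point threefold compound dilution (highest 1 to 10 μM) after 4–24 h culture at 37° C under 5% CO2. Four-parameter nonlinear regression of the dose response yielded DC50.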

T1 sequence (P29597 whole entry): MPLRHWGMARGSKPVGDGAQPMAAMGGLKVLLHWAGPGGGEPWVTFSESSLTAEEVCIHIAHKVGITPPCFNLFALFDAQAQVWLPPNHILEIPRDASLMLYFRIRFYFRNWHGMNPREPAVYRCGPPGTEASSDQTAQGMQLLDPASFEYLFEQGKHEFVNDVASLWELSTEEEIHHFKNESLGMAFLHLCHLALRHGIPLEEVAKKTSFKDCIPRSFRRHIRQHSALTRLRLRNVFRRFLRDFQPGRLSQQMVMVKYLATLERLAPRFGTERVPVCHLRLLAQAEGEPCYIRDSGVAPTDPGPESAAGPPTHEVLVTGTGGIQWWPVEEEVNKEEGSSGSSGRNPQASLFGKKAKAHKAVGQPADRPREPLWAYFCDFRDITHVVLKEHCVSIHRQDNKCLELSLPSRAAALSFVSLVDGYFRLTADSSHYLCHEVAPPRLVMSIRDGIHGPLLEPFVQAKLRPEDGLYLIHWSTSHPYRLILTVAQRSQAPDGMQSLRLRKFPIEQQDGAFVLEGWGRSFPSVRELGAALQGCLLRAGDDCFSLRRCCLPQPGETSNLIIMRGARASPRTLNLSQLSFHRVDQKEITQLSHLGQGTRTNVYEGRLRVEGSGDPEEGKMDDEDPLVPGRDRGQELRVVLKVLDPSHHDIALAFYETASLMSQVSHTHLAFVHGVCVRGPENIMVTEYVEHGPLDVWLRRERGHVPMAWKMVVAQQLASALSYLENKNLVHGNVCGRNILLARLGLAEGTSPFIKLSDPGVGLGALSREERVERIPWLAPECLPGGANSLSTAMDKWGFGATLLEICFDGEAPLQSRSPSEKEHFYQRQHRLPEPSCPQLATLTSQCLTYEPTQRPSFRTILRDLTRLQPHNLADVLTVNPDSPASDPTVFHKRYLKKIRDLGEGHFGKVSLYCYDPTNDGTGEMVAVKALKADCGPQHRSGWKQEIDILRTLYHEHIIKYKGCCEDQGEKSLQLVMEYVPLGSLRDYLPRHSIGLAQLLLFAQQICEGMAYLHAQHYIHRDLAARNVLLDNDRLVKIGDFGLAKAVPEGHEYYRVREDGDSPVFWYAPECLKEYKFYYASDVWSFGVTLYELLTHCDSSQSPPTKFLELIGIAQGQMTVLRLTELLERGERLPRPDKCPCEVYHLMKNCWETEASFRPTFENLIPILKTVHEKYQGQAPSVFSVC

Row | Structure (SMILES) | DC50 [nM]
1 | CNc1cc(N2CCc3c(N4CCC(CN5CC6(C5)CN(c5ccc(-c7ccc8c(c7)n(C)c(=O)n8C7CCC(=O)NC7=O)cc5)C6)CC4)cccc32)nn2c(C(=O)N[C@@H]3C[C@@H]3F)cnc12 (stereo partly drawn) [Example K573] | > 100
2 | CNc1cc(N2CCc3c(-c4ccc(CN5CC6(C5)CN(c5ccc(-c7ccc8c(c7)n(C)c(=O)n8C7CCC(=O)NC7=O)cc5)C6)cn4)cccc32)nn2c(C(=O)N[C@@H]3C[C@@H]3F)cnc12 (stereo partly drawn) [Example K574] | > 100
3 | CNc1cc(Nc2cccc(CN3CCN(c4ccc(-c5ccc6c(c5)n(C)c(=O)n6C5CCC(=O)NC5=O)cc4)CC3)c2OC)nn2c(C(=O)N[C@@H]3C[C@@H]3F)cnc12 (stereo partly drawn) [Example K576] | > 100
4 | CNc1cc(Nc2cc(F)cc(-c3ccc(CN4CCN(c5ccc(-c6ccc7c(c6)n(C)c(=O)n7C6CCC(=O)NC6=O)cc5)CC4)cn3)c2OC)nn2c(C(=O)N[C@@H]3C[C@@H]3F)cnc12 (stereo partly drawn) [Example K577] | > 100
5 | CNc1cc(Nc2cccc(CN3CCC(c4cccc5c4n(C)c(=O)n5C4CCC(=O)NC4=O)CC3)c2)nn2c(C(=O)NC3CC3)cnc12 (stereo not drawn) [Example K578] | > 100
6 | CNc1cc(Nc2cccc(CN3CCC34CN(c3ncc(C#Cc5ccc6c(c5)n(C)c(=O)n6C5CCC(=O)NC5=O)cn3)C4)c2)nn2c(C(=O)NC3CC3)cnc12 (stereo not drawn) [Example K580] | > 100
7 | CNc1cc(Nc2cccc(CN3CCC([C@@H]4CCN(c5ccc6c(c5)n(C)c(=O)n6C5CCC(=O)NC5=O)C4)CC3)c2)nn2c(C(=O)NC3CC3)ncc12 (stereo partly drawn) [Example K581] | > 100
8 | CNc1cc(Nc2cccc(CN3CCC4(CCCN(CCC5C=c6c(n(C7CCC(=O)NC7=O)c(=O)n6C)=CC5)C4)C3)c2)nn2c(C(=O)NC3CC3)cnc12 (stereo not drawn) [Example K582] | > 100
9 | CNc1cc(Nc2cccc(CN3CCC(N(C)CC4CCN(c5ccc(-c6ccc7c(c6)n(C)c(=O)n7C6CCC(=O)NC6=O)cc5)C4)CC3)c2)nn2c(C(=O)NC3CC3)cnc12 (stereo not drawn) [Example K583] | > 100
10 | CNc1cc(Nc2cccc(CN3CCC4(CC3)CC(Cc3ccc5c(c3)n(C)c(=O)n5C3CCC(=O)NC3=O)C4)c2)nn2c(C(=O)NC3CC3)cnc12 (stereo not drawn) [Example K584] | > 100
11 | CNc1cc(Nc2cccc(CN3CCC(c4ncc(-c5ccc6c(c5)n(C)c(=O)n6C5CCC(=O)NC5=O)cn4)CC3)c2)nn2c(C(=O)NC3CC3)cnc12 (stereo not drawn) [Example K585] | > 100
12 | CNc1cc(Nc2cccc(CN3CC4(CCN(c5ccc(-c6ccc7c(c6)n(C)c(=O)n7C6CCC(=O)NC6=O)cn5)CC4)C3)c2)nn2c(C(=O)NC3CC3)cnc12 (stereo not drawn) [Example K586] | > 100
13 | CNc1cc(Nc2cccc(CN3CCN(C(=O)CCc4ccc(-c5ccc6c(c5)n(C)c(=O)n6C5CCC(=O)NC5=O)cc4)CC3)c2)nn2c(C(=O)NC3CC3)cnc12 (stereo not drawn) [Example K587] | > 100
14 | CNc1cc(Nc2cccc(CN3CCC4(CCN(c5ccc(-c6ccc7c(c6)n(C)c(=O)n7C6CCC(=O)NC6=O)cc5)C4)C3)c2)nn2c(C(=O)NC3CC3)cnc12 (stereo not drawn) [Example K588] | > 100
15 | CNc1cc(Nc2cccc(CN3CCC(N4CC(N5CCN(c6ccc7c(c6)n(C)c(=O)n7C6CCC(=O)NC6=O)CC5)C4)CC3)c2)nn2c(C(=O)NC3CC3)cnc12 (stereo not drawn) [Example K589] | > 100
16 | CNc1cc(Nc2cccc(CN3CCC(OC4CC(c5cccc6c5n(C)c(=O)n6C5CCC(=O)NC5=O)C4)CC3)c2)nn2c(C(=O)NC3CC3)cnc12 (stereo not drawn) [Example K590] | > 100

Biological target: T1, TYK2
Experiment: TYK2 degradation MSD assay in OCI-LY10 cells
Type: cell-based
Set-up: endogenous in cells; host or cells: EBV-B cells
Conditions: 4 to 24 hours incubation, read-out: TYK2 MSD DC50 rating in OCI-LY10
Outline: as §1

Row | Structure (SMILES) | DC50 [nM]
17 | CNc1cc(N2CCc3c(N4CCC(CN5CC6(C5)CN(c5ccc(-c7ccc8c(c7)n(C)c(=O)n8C7CCC(=O)NC7=O)cc5)C6)CC4)cccc32)nn2c(C(=O)N[C@@H]3C[C@@H]3F)cnc12 (stereo partly drawn) [Example K573] | 1 to 10
18 | CNc1cc(N2CCc3c(-c4ccc(CN5CC6(C5)CN(c5ccc(-c7ccc8c(c7)n(C)c(=O)n8C7CCC(=O)NC7=O)cc5)C6)cn4)cccc32)nn2c(C(=O)N[C@@H]3C[C@@H]3F)cnc12 (stereo partly drawn) [Example K574] | 1 to 10
19 | CNc1cc(Nc2cccc(CN3CCN(c4ccc(-c5ccc6c(c5)n(C)c(=O)n6C5CCC(=O)NC5=O)cc4)CC3)c2OC)nn2c(C(=O)N[C@@H]3C[C@@H]3F)cnc12 (stereo partly drawn) [Example K576] | > 100
20 | CNc1cc(Nc2cc(F)cc(-c3ccc(CN4CCN(c5ccc(-c6ccc7c(c6)n(C)c(=O)n7C6CCC(=O)NC6=O)cc5)CC4)cn3)c2OC)nn2c(C(=O)N[C@@H]3C[C@@H]3F)cnc12 (stereo partly drawn) [Example K577] | 1 to 10
21 | CNc1cc(Nc2cccc(CN3CCC(c4cccc5c4n(C)c(=O)n5C4CCC(=O)NC4=O)CC3)c2)nn2c(C(=O)NC3CC3)cnc12 (stereo not drawn) [Example K578] | > 100
22 | CNc1cc(Nc2cccc(CN3CCC34CN(c3ncc(C#Cc5ccc6c(c5)n(C)c(=O)n6C5CCC(=O)NC5=O)cn3)C4)c2)nn2c(C(=O)NC3CC3)cnc12 (stereo not drawn) [Example K580] | > 100
23 | CNc1cc(Nc2cccc(CN3CCC([C@@H]4CCN(c5ccc6c(c5)n(C)c(=O)n6C5CCC(=O)NC5=O)C4)CC3)c2)nn2c(C(=O)NC3CC3)ncc12 (stereo partly drawn) [Example K581] | < 1
24 | CNc1cc(Nc2cccc(CN3CCC4(CCCN(CCC5C=c6c(n(C7CCC(=O)NC7=O)c(=O)n6C)=CC5)C4)C3)c2)nn2c(C(=O)NC3CC3)cnc12 (stereo not drawn) [Example K582] | > 100
25 | CNc1cc(Nc2cccc(CN3CCC(N(C)CC4CCN(c5ccc(-c6ccc7c(c6)n(C)c(=O)n7C6CCC(=O)NC6=O)cc5)C4)CC3)c2)nn2c(C(=O)NC3CC3)cnc12 (stereo not drawn) [Example K583] | < 1
26 | CNc1cc(Nc2cccc(CN3CCC4(CC3)CC(Cc3ccc5c(c3)n(C)c(=O)n5C3CCC(=O)NC3=O)C4)c2)nn2c(C(=O)NC3CC3)cnc12 (stereo not drawn) [Example K584] | > 100
27 | CNc1cc(Nc2cccc(CN3CCC(c4ncc(-c5ccc6c(c5)n(C)c(=O)n6C5CCC(=O)NC5=O)cn4)CC3)c2)nn2c(C(=O)NC3CC3)cnc12 (stereo not drawn) [Example K585] | 1 to 10
28 | CNc1cc(Nc2cccc(CN3CC4(CCN(c5ccc(-c6ccc7c(c6)n(C)c(=O)n7C6CCC(=O)NC6=O)cn5)CC4)C3)c2)nn2c(C(=O)NC3CC3)cnc12 (stereo not drawn) [Example K586] | 1 to 10
29 | CNc1cc(Nc2cccc(CN3CCN(C(=O)CCc4ccc(-c5ccc6c(c5)n(C)c(=O)n6C5CCC(=O)NC5=O)cc4)CC3)c2)nn2c(C(=O)NC3CC3)cnc12 (stereo not drawn) [Example K587] | 1 to 10
30 | CNc1cc(Nc2cccc(CN3CCC4(CCN(c5ccc(-c6ccc7c(c6)n(C)c(=O)n7C6CCC(=O)NC6=O)cc5)C4)C3)c2)nn2c(C(=O)NC3CC3)cnc12 (stereo not drawn) [Example K588] | 1 to 10
31 | CNc1cc(Nc2cccc(CN3CCC(N4CC(N5CCN(c6ccc7c(c6)n(C)c(=O)n7C6CCC(=O)NC6=O)CC5)C4)CC3)c2)nn2c(C(=O)NC3CC3)cnc12 (stereo not drawn) [Example K589] | < 1
32 | CNc1cc(Nc2cccc(CN3CCC(OC4CC(c5cccc6c5n(C)c(=O)n6C5CCC(=O)NC5=O)C4)CC3)c2)nn2c(C(=O)NC3CC3)cnc12 (stereo not drawn) [Example K590] | < 1

Biological target: T1, TYK2
Experiment: TYK2 degradation MSD assay in EBV-B cells
Type: cell-based
Set-up: endogenous in cells; host or cells: EBV-B cells
Conditions: 4 to 24 hours incubation, read-out: TYK2 MSD DC50 rating in EBV-B
Outline: as §1

Row | Structure (SMILES) | DC50 [nM]
33 | CNc1cc(N2CCc3c(N4CCC(CN5CC6(C5)CN(c5ccc(-c7ccc8c(c7)n(C)c(=O)n8C7CCC(=O)NC7=O)cc5)C6)CC4)cccc32)nn2c(C(=O)N[C@@H]3C[C@@H]3F)cnc12 (stereo partly drawn) [Example K573] | > 100
34 | CNc1cc(N2CCc3c(-c4ccc(CN5CC6(C5)CN(c5ccc(-c7ccc8c(c7)n(C)c(=O)n8C7CCC(=O)NC7=O)cc5)C6)cn4)cccc32)nn2c(C(=O)N[C@@H]3C[C@@H]3F)cnc12 (stereo partly drawn) [Example K574] | > 100
35 | CNc1cc(Nc2cccc(CN3CCN(c4ccc(-c5ccc6c(c5)n(C)c(=O)n6C5CCC(=O)NC5=O)cc4)CC3)c2OC)nn2c(C(=O)N[C@@H]3C[C@@H]3F)cnc12 (stereo partly drawn) [Example K576] | > 100
36 | CNc1cc(Nc2cc(F)cc(-c3ccc(CN4CCN(c5ccc(-c6ccc7c(c6)n(C)c(=O)n7C6CCC(=O)NC6=O)cc5)CC4)cn3)c2OC)nn2c(C(=O)N[C@@H]3C[C@@H]3F)cnc12 (stereo partly drawn) [Example K577] | > 100
37 | CNc1cc(Nc2cccc(CN3CCC(c4cccc5c4n(C)c(=O)n5C4CCC(=O)NC4=O)CC3)c2)nn2c(C(=O)NC3CC3)cnc12 (stereo not drawn) [Example K578] | > 100
38 | CNc1cc(Nc2cccc(CN3CCC34CN(c3ncc(C#Cc5ccc6c(c5)n(C)c(=O)n6C5CCC(=O)NC5=O)cn3)C4)c2)nn2c(C(=O)NC3CC3)cnc12 (stereo not drawn) [Example K580] | > 100
39 | CNc1cc(Nc2cccc(CN3CCC([C@@H]4CCN(c5ccc6c(c5)n(C)c(=O)n6C5CCC(=O)NC5=O)C4)CC3)c2)nn2c(C(=O)NC3CC3)ncc12 (stereo partly drawn) [Example K581] | > 100
40 | CNc1cc(Nc2cccc(CN3CCC4(CCCN(CCC5C=c6c(n(C7CCC(=O)NC7=O)c(=O)n6C)=CC5)C4)C3)c2)nn2c(C(=O)NC3CC3)cnc12 (stereo not drawn) [Example K582] | > 100
41 | CNc1cc(Nc2cccc(CN3CCC(N(C)CC4CCN(c5ccc(-c6ccc7c(c6)n(C)c(=O)n7C6CCC(=O)NC6=O)cc5)C4)CC3)c2)nn2c(C(=O)NC3CC3)cnc12 (stereo not drawn) [Example K583] | > 100
42 | CNc1cc(Nc2cccc(CN3CCC4(CC3)CC(Cc3ccc5c(c3)n(C)c(=O)n5C3CCC(=O)NC3=O)C4)c2)nn2c(C(=O)NC3CC3)cnc12 (stereo not drawn) [Example K584] | > 100
43 | CNc1cc(Nc2cccc(CN3CCC(c4ncc(-c5ccc6c(c5)n(C)c(=O)n6C5CCC(=O)NC5=O)cn4)CC3)c2)nn2c(C(=O)NC3CC3)cnc12 (stereo not drawn) [Example K585] | > 100
44 | CNc1cc(Nc2cccc(CN3CC4(CCN(c5ccc(-c6ccc7c(c6)n(C)c(=O)n7C6CCC(=O)NC6=O)cn5)CC4)C3)c2)nn2c(C(=O)NC3CC3)cnc12 (stereo not drawn) [Example K586] | > 100
45 | CNc1cc(Nc2cccc(CN3CCN(C(=O)CCc4ccc(-c5ccc6c(c5)n(C)c(=O)n6C5CCC(=O)NC5=O)cc4)CC3)c2)nn2c(C(=O)NC3CC3)cnc12 (stereo not drawn) [Example K587] | > 100
46 | CNc1cc(Nc2cccc(CN3CCC4(CCN(c5ccc(-c6ccc7c(c6)n(C)c(=O)n7C6CCC(=O)NC6=O)cc5)C4)C3)c2)nn2c(C(=O)NC3CC3)cnc12 (stereo not drawn) [Example K588] | > 100
47 | CNc1cc(Nc2cccc(CN3CCC(N4CC(N5CCN(c6ccc7c(c6)n(C)c(=O)n7C6CCC(=O)NC6=O)CC5)C4)CC3)c2)nn2c(C(=O)NC3CC3)cnc12 (stereo not drawn) [Example K589] | > 100
48 | CNc1cc(Nc2cccc(CN3CCC(OC4CC(c5cccc6c5n(C)c(=O)n6C5CCC(=O)NC5=O)C4)CC3)c2)nn2c(C(=O)NC3CC3)cnc12 (stereo not drawn) [Example K590] | > 100

Reference: patent US20250051338A1, “TYK2 DEGRADERS AND USES THEREOF” (Kymera Therapeutics, Inc., priority 2021, published 2025)
